We go through 41 compounds from patent US20260285880A1, “SUBSTITUTED DIHYDROTHIENOPYRIMIDINE COMPOUND, PREPARATION METHOD THEREFOR, AND USE THEREOF” (SHANGHAI YIDI BIOTECHNOLOGY CO., LTD., priority 2023, published 2026).

Like-named read-outs stand apart in the source and are kept apart here.

The target in this experiment is Flpin-293-PDE4B2 cells (Homo sapiens, UniProt Q07343). The experiment can be described thus: cell-based.
Setting [1] is: read-out: Cell Inhibition % @10 nM, 10 nM, Flpin-293-PDE4B2 cells.
The mark [2] stands for this setting: read-out: Cell Inhibition % @100 nM, 100 nM, Flpin-293-PDE4B2 cells.
Where [3] appears, read: read-out: Cell Inhibition % @1 nM, 1 nM, Flpin-293-PDE4B2 cells.

Flpin-293-PDE4B2 cells, sequence (Q07343 1-564 isoform Q07343-2): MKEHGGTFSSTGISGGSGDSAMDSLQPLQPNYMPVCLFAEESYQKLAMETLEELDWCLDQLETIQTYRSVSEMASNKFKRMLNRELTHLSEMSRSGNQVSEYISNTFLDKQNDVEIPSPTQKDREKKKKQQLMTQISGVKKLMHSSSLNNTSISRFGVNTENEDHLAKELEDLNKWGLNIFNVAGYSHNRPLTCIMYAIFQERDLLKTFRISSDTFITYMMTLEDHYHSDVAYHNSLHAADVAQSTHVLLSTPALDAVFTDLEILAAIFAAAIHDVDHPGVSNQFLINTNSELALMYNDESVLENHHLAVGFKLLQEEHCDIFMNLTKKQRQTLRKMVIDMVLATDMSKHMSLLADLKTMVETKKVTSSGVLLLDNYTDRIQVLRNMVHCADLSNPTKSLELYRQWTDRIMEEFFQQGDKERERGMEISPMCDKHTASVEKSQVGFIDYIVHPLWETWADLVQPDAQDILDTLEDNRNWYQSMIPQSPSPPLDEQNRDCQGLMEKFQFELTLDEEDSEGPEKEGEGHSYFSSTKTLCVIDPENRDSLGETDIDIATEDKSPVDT
Procedure: All compounds were dissolved in DMSO into 10 mM or 20 mM stock solutions. The compound to be tested was diluted with DMSO with a 3-fold gradient. […] 40 nL/well of the compound or a DMSO control was transferred to a 384-well plate by using Echo 550 instrument. […] The plate was incubated at 37° C. for 30 minutes. Eu-cAMP tracer and Ulight-anti-cAMP were frozen and thawed and diluted in a lysis buffer. 10 of μl Eu-cAMP tracer was added to an experimental well, and 10 μl of Ulight-anti-cAMP was added to the experimental well. The reaction plate was centrifuged at 200 g at room temperature for 30 s and then left to stand at 25° C. for 1 h, and data was then collected by Envision. Inhibition %=100−(Signal compound−SignalAve positive control)/(SignalAve negative control−SignalAve positive control)×100.

`[O-][S+]1CCc2nc(N3CCc4ccc(Cl)cc4C3)nc(NC3(CO)CCC3)c21` (centres unmarked) [Compound 20]: the inhibition at 0.01 µM under setting [1] was determined as 14.2%. Further, under setting [2], the inhibition at 0.1 µM stood at 69.9%.
For `[O-][S+]1CCc2nc(N3CCc4cccc(Cl)c4C3)nc(NC3(CO)CCC3)c21` (centres unmarked) [Compound 21] the same measures were 18.8% and 79.2%.
For `Cn1cc2c(n1)CN(c1nc3c(c(NC4(CO)CCC4)n1)[S+]([O-])CC3)CC2` (centres unmarked) [Compound 30] the same measures were 11.3% and 48%.
Consider `[O-][S+]1CCc2nc(N3CCc4c(nn5cc(F)ccc45)C3)nc(NC3(CO)CCC3)c21` (centres unmarked) [Compound 32], for which, under setting [3], the inhibition at 0.001 µM came to 23.5%. Moreover, the inhibition at 0.01 µM under setting [1] is 74.2%. Further, the inhibition at 0.1 µM under setting [2] was 97.7%.
Turning to `[O-][S+]1CCc2nc(N3CCc4ccc(Cl)cc4CC3)nc(NC3(CO)CCC3)c21` (centres unmarked) [Compound 34], under setting [1], the inhibition at 0.01 µM is 14%. Besides, under setting [2], the inhibition at 0.1 µM worked out at 62%.
Taken in the same sequence, the figures for `[O-][S+]1CCc2nc(N3CCc4cc(C(F)(F)F)ccc4C3)nc(NC3(CO)CCC3)c21` (centres unmarked) [Compound 52] were 81.8% and 99.5%.
For the compound `[O-][S+]1CCc2nc(N3Cc4ccc(Br)cc4C3)nc(NC3(CO)CCC3)c21` (centres unmarked) [Compound 59], the inhibition at 0.01 µM under setting [1] was 42.6%. Under setting [2], the inhibition at 0.1 µM came out at 85.8%.
Taken in the same sequence, the figures for `[O-][S+]1CCc2nc(N3CCc4nc(Br)sc4C3)nc(NC3(CO)CCC3)c21` (centres unmarked) [Compound 63] were 31.1% and 76.6%.
Turning to `[O-][S+]1CCc2nc(N3CCc4cc(I)ccc4C3)nc(NC3(CO)CCC3)c21` (centres unmarked) [Compound 67], the inhibition at 0.001 µM under setting [3] was found to be 14.2%. In addition, under setting [1], the inhibition at 0.01 µM was 47.4%. Also, the inhibition at 0.1 µM under setting [2] turned out to be 96.4%.
Consider `NC(=O)c1ccc2c(c1)CCN(c1nc3c(c(NC4(CO)CCC4)n1)[S+]([O-])CC3)C2` (centres unmarked) [Compound 75], for which the inhibition at 0.001 µM under setting [3] amounted to 4.93%. In addition, under setting [1], the inhibition at 0.01 µM came to 24.9%. Besides, under setting [2], the inhibition at 0.1 µM came out at 51.4%.
For `Cn1ccc(-c2ccc3c(c2)CCN(c2nc4c(c(NC5(CO)CCC5)n2)[S+]([O-])CC4)C3)n1` (centres unmarked) [Compound 77] the same measures were 61%, 99.4% and 101%.
In the case of `[O-][S+]1CCc2nc(N3CCc4cc(Cl)ncc4C3)nc(NC3(CO)CCC3)c21` (centres unmarked) [Compound 78], the inhibition at 0.001 µM (read-out: Cell Inhibition % @1 nM) worked out at 2.2%. Also, the inhibition at 0.01 µM (read-out: Cell Inhibition % @10 nM) was found to be 32.1%. For the same compound, the inhibition at 0.1 µM (read-out: Cell Inhibition % @100 nM) amounted to 86.3%.
`[O-][S+]1CCc2nc(N3CCc4cnc(Cl)cc4C3)nc(NC3(CO)CCC3)c21` (centres unmarked) [Compound 79]: under setting [3], the inhibition at 0.001 µM was 1.99%. The inhibition at 0.01 µM under setting [1] turned out to be 11.2%. Under setting [2], the inhibition at 0.1 µM came to 59.4%.
Taken in the same sequence, the figures for `COc1ccc2sc3c(c2c1)CCN(c1nc2c(c(NC4(CO)CCC4)n1)[S+]([O-])CC2)C3` (centres unmarked) [Compound 82] were 19.1%, 77.5% and 99.9%.
With `[O-][S+]1CCc2nc(N3CC[C@@H]4c5ccccc5OC[C@H]4C3)nc(NC3(CO)CCC3)c21` (some centres unmarked) [Compound 83], the inhibition at 0.001 µM under setting [3] is 5.79%. In addition, under setting [1], the inhibition at 0.01 µM worked out at 47.8%. Also, the inhibition at 0.1 µM under setting [2] worked out at 97.3%.
Taken in the same sequence, the figures for `[O-][S+]1CCc2nc(N3CCc4cc(-c5ncco5)ccc4C3)nc(NC3(CO)CCC3)c21` (centres unmarked) [Compound 84] were 32.9%, 97% and 101%.
Taken in the same sequence, the figures for `[O-][S+]1CCc2nc(N3CCc4cc(-c5cnco5)ccc4C3)nc(NC3(CO)CCC3)c21` (centres unmarked) [Compound 85] were 41.7%, 97% and 101%.
In the case of `CN1CCN(c2ccc3c(c2)CCN(c2nc4c(c(NC5(CO)CCC5)n2)[S+]([O-])CC4)C3)C1=O` (centres unmarked) [Compound 86], the inhibition at 0.001 µM under setting [3] was 8.69%. Moreover, the inhibition at 0.01 µM under setting [1] came to 63.1%. For the same compound, the inhibition at 0.1 µM under setting [2] was found to be 97.8%.
Taken in the same sequence, the figures for `O=C1CCCN1c1ccc2c(c1)CCN(c1nc3c(c(NC4(CO)CCC4)n1)[S+]([O-])CC3)C2` (centres unmarked) [Compound 87] were 2.9%, 31.3% and 89.1%.
Taken in the same sequence, the figures for `[O-][S+]1CCc2nc(N3CCc4cc(N5CC(F)(F)C5)ccc4C3)nc(NC3(CO)CCC3)c21` (centres unmarked) [Compound 88] were 3.67%, 28.8% and 93.5%.
For `[O-][S+]1CCc2nc(N3CCc4cc(N5CC(F)C5)ccc4C3)nc(NC3(CO)CCC3)c21` (centres unmarked) [Compound 89] the same measures were 3.47%, 37.4% and 95.3%.
In the case of `[O-][S+]1CCc2nc(N3CCc4cc(-n5ccnc5)ccc4C3)nc(NC3(CO)CCC3)c21` (centres unmarked) [Compound 90], the inhibition at 0.001 µM under setting [3] is 15%. In addition, the inhibition at 0.01 µM under setting [1] was 65.8%. Also, under setting [2], the inhibition at 0.1 µM worked out at 97.2%.
Taken in the same sequence, the figures for `[O-][S+]1CCc2nc(N3CCc4cc(-n5cccn5)ccc4C3)nc(NC3(CO)CCC3)c21` (centres unmarked) [Compound 91] were 19.2%, 86% and 100%.
Taken in the same sequence, the figures for `[O-][S+]1CCc2nc(N3CCc4cc(N5CCCC5)ccc4C3)nc(NC3(CO)CCC3)c21` (centres unmarked) [Compound 92] were 3.35%, 43.7% and 98.2%.
For `CS(=O)(=O)c1ccc2c(c1)CCN(c1nc3c(c(NC4(CO)CCC4)n1)[S+]([O-])CC3)C2` (centres unmarked) [Compound 93] the same measures were 14%, 61% and 94.2%.
`Cn1cnc(-c2ccc3c(c2)CCN(c2nc4c(c(NC5(CO)CCC5)n2)[S+]([O-])CC4)C3)n1` (centres unmarked) [Compound 94]: the inhibition at 0.001 µM under setting [3] turned out to be 34.8%. Besides, under setting [1], the inhibition at 0.01 µM stood at 94.1%. Moreover, the inhibition at 0.1 µM under setting [2] stood at 100%.
Take `[O-][S+]1CCc2nc(N3CCc4cc(F)c(F)cc4C3)nc(NC3(CO)CCC3)c21` (centres unmarked) [Compound 95]: the inhibition at 0.001 µM under setting [3] is -4.2%. Besides, the inhibition at 0.01 µM under setting [1] came to 6.8%. Also, the inhibition at 0.1 µM under setting [2] was 66.7%.
Taken in the same sequence, the figures for `[O-][S+]1CCc2nc(N3CCc4cc(Cl)c(F)cc4C3)nc(NC3(CO)CCC3)c21` (centres unmarked) [Compound 96] were -2.7%, 15.7% and 84.8%.
In the case of `[O-][S+]1CCc2nc(N3CCC4=C(COc5ccccc54)C3)nc(NC3(CO)CCC3)c21` (centres unmarked) [Compound 97], the inhibition at 0.001 µM under setting [3] was found to be 1.66%. Moreover, the inhibition at 0.01 µM under setting [1] was found to be 17.4%. Moreover, the inhibition at 0.1 µM under setting [2] was found to be 86.5%.
As for `Cn1c2c(c3ccc(Cl)cc3c1=O)CCN(c1nc3c(c(NC4(CO)CCC4)n1)[S+]([O-])CC3)C2` (centres unmarked) [Compound 98], the inhibition at 0.001 µM under setting [3] is -1.71%. The inhibition at 0.01 µM under setting [1] amounted to 46.7%. In addition, the inhibition at 0.1 µM under setting [2] was found to be 95.8%.
Taken in the same sequence, the figures for `COc1nc2c(c3ccc(Cl)cc13)CCN(c1nc3c(c(NC4(CO)CCC4)n1)[S+]([O-])CC3)C2` (centres unmarked) [Compound 99] were 4.18%, 43.7% and 96.5%.
For `[O-][S+]1CCc2nc(N3CCc4c(ncc5cc(Cl)ccc45)C3)nc(NC3(CO)CCC3)c21` (centres unmarked) [Compound 100] the same measures were 6%, 47.7% and 97.3%.
For the compound `Nc1nc2cc(Cl)ccc2c2c1CN(c1nc3c(c(NC4(CO)CCC4)n1)[S+]([O-])CC3)CC2` (centres unmarked) [Compound 102], under setting [3], the inhibition at 0.001 µM is -0.08%. In addition, the inhibition at 0.01 µM under setting [1] was 35.9%. Besides, under setting [2], the inhibition at 0.1 µM is 95.5%.
As for `[O-][S+]1CCc2nc(N3CCc4c(c(NCCO)nc5cc(Cl)ccc45)C3)nc(NC3(CO)CCC3)c21` (centres unmarked) [Compound 103], the inhibition at 0.001 µM under setting [3] is 2.83%. Under setting [1], the inhibition at 0.01 µM came to 38.9%. Moreover, under setting [2], the inhibition at 0.1 µM is 95.4%.
Taken in the same sequence, the figures for `Cn1nc(Cl)c2c3c(cnc21)CN(c1nc2c(c(NC4(CO)CCC4)n1)[S+]([O-])CC2)CC3` (centres unmarked) [Compound 105] were 7.53%, 42.5% and 93.5%.
Regarding `[O-][n+]1cc2c(c3ccc(Cl)cc31)CCN(c1nc3c(c(NC4(CO)CCC4)n1)[S+]([O-])CC3)C2` (centres unmarked) [Compound 106], the inhibition at 0.001 µM under setting [3] came out at 0.41%. Further, the inhibition at 0.01 µM under setting [1] amounted to 21.2%. Further, the inhibition at 0.1 µM under setting [2] amounted to 67.5%.
Taken in the same sequence, the figures for `[O-][S+]1CCc2nc(N3CC[C@@H]4c5cccc(Cl)c5OC[C@H]4C3)nc(NC3(CO)CCC3)c21` (some centres unmarked) [Compound 107] were 2.82%, 52.5% and 98.1%.
For `[O-][S+]1CCc2nc(N3CC[C@@H]4c5cc(Cl)ccc5OC[C@H]4C3)nc(NC3(CO)CCC3)c21` (some centres unmarked) [Compound 108] the same measures were -0.82%, 37.4% and 95.1%.
Taken in the same sequence, the figures for `[O-][S+]1CCc2nc(N3CC[C@@H]4c5ccc(F)cc5OC[C@H]4C3)nc(NC3(CO)CCC3)c21` (some centres unmarked) [Compound 109] were 17.7%, 65.4% and 97.8%.
`COc1ccc2c(c1)OC[C@H]1CN(c3nc4c(c(NC5(CO)CCC5)n3)[S+]([O-])CC4)CC[C@H]21` (some centres unmarked) [Compound 110]: the inhibition at 0.001 µM under setting [3] was determined as 19%. The inhibition at 0.01 µM under setting [1] was 76.1%. Also, the inhibition at 0.1 µM under setting [2] is 100%.
For `[O-][S+]1CCc2nc(N3CC[C@@H]4c5ccc(C(F)(F)F)cc5OC[C@H]4C3)nc(NC3(CO)CCC3)c21` (some centres unmarked) [Compound 111] the same measures were 8.07%, 22.2% and 81.1%.

The inhibition is the change of the read-out against control, counted positive when it falls.
